Laboratory results taken from patent US8420852B2, “Phospholipase A2 inhibitors and their use in treating neurological injury and disease” (The Regents of the University of California, priority 2007, dated 2013).
“Also recorded” adds a separate entry of the source.

Tests used:
iPLA2 (GVIA) = target: T1, iPLA2 (GVIA) (Homo sapiens, UniProt O60733); assay: standard iPLA2 (GVIA) activity assay, DPPC/Triton X-100 mixed micelles; type: biochemical; settings: at 0.091 mol fraction
T1 sequence (O60733 1-806): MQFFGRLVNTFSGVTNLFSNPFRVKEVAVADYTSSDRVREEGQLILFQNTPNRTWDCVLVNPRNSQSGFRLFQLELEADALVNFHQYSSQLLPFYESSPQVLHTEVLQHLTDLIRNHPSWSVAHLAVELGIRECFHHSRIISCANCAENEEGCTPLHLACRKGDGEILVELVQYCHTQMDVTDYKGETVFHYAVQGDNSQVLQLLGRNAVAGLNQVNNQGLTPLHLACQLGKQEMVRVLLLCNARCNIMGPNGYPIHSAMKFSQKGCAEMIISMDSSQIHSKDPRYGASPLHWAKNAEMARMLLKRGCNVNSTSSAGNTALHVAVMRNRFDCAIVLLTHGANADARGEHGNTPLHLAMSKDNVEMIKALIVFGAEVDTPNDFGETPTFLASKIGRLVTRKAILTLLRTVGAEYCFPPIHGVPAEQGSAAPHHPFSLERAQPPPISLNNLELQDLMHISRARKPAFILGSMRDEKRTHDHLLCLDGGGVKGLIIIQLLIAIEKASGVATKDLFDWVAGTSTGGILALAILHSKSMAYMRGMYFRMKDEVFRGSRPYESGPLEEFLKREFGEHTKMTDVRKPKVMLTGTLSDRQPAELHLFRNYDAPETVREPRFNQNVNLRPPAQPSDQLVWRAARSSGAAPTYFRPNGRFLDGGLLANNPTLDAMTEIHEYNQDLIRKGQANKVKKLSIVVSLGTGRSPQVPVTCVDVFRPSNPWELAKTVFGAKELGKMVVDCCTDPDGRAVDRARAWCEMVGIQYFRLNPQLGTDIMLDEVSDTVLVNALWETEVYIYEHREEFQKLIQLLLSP
Method: The compounds described herein were tested for inhibition of PLA2s in in vitro assay systems. The data, summarized in the Examples, are represented as XI(50) values unless otherwise noted. XI(50) is defined as the inhibitor concentration that produced 50% inhibition. XI(50) is used as opposed to the more common IC50 because GIVA and GVIA PLA2 are active at a two-dimensional lipid interface rather than in three-dimensional solution. (Deems, Anal. Biochem., 287:1-16, 2000).
For the groups that received delayed treatment after symptoms occurred, mice were treated with daily intraperitoneal injections of AX059 starting from the first day of clinical symptoms, beginning on day 11; and AX115 starting from the first day of clinical peak (i.e., score 4), beginning of day 14. All inhibitors were administered for 2 weeks. The selectivity of the compounds for the different PLA2s is shown as the percentage inhibition in Table 1. The XI(50) is the mole fraction of the inhibitor in the total substrate interface required to inhibit the enzyme by 50%.
Compound AX115 was tested for its ability to inhibit human cPLA2 (GIVA) in a cPLA2 (GIVA) specific assay that uses mixed micelles of the substrate 1-palmitoyl-2-arachidonyl phosphatidylcholine and the detergent Triton X-100 (97:3) containing phosphatidylinositol 4,5-bisphosphate (400 μM) as previously described. […]

GIIA PLA2 = target: T2, GIIA PLA2 (Homo sapiens, UniProt P14555); assay: vesicle assay for GIIA PLA2; type: biochemical
T2 sequence (P14555 21-144): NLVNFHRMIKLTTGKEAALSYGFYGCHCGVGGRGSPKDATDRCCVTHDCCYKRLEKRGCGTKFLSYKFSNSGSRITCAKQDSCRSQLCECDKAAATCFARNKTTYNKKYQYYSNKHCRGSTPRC
Description: Vesicle assays have generally been employed for this enzyme, but they have limitations for in vitro comparison of inhibitor potency.

[1] = test system: SJL/J mice induced with EAE; assay: EAE model of multiple sclerosis, clinical score; type: in vivo, mouse

CCCCCCCCCCCCCCC(=O)C(=O)NCC(=O)OC [AX115]
Inhibition iPLA2GIVA (iPLA2 (GVIA)): 45% | inhibition of GIIA compared with GV PLA2 (GIIA PLA2): comparable inhibition | mean maximal peak clinical grade at day 17 ([1]; delayed treatment from peak of first attack, did not differ from vehicle): ~3 | clinical score on day 35 ([1]; delayed treatment from peak of first attack, vehicle 2.3): 2.8 | clinical score on day 23 ([1]; delayed treatment from peak of first attack, vehicle about 1.4): 2.5 | clinical course of EAE vs vehicle control ([1]; delayed treatment from peak of first clinical attack (day 14), daily i.p.): prevents remission of the disease; also recorded: remission was prevented; also recorded: worsened the disease | clinical course of EAE vs vehicle control ([1]; treatment before onset of symptoms, from day 5/6 after immunization, daily for 3 weeks): no statistical significance; also recorded: did not differ from vehicle treated control mice; also recorded: did not substantially differ from vehicle treated controls
